Laboratory results: ChEMBL document CHEMBL5380795, “Design, Synthesis, and Bioactivity Investigation of Cyclic Lipopeptide Antibiotics Containing Eight to Nine Amino Acids” (J Med Chem, 2023)
In brackets after ≈: the same amount, converted by molar mass. Activity calls are given as the source filed them. No cut-off for these calls is given here. Bridge positions count the residues as written; N and C are the ends. Square brackets hold non-standard residues; d marks the D form. Peptide text beside a SMILES is read from it. * marks the point of attachment. Decanoyl(3R-OH) = CCCCCCC[C@@H](O)CC(=O)*; Decanoyl = CCCCCCCCCC(=O)*; dDab = NCC[C@@H](N)C(=O)O; Dab = NCC[C@H](N)C(=O)O

Experiments:
[1] = tested on: Staphylococcus epidermidis; assay: Antibacterial activity against methicillin resistant Staphylococcus epidermidis clinical isolate 19-5 assessed as inhibition of bacterial growth incubated for 18 to 24 hrs by broth microdilution method; assay type: functional; details: time 18-24 hrs
Staphylococcus aureus [2] = assay: Antibacterial activity against Staphylococcus aureus ATCC 29213 assessed as inhibition of bacterial growth incubated for 18 to 24 hrs by broth microdilution method; assay type: functional; details: time 18-24 hrs
Escherichia coli [3] = assay: Antibacterial activity against KPC producing Escherichia coli ATCC BAA-2340 assessed as inhibition of bacterial growth incubated for 18 to 24 hrs by broth microdilution method; assay type: functional; details: time 18-24 hrs
Pseudomonas aeruginosa [4] = assay: Antibacterial activity against Pseudomonas aeruginosa ATCC 27853 assessed as inhibition of bacterial growth incubated for 18 to 24 hrs by broth microdilution method; assay type: functional; details: time 18-24 hrs
Klebsiella pneumoniae [5] = assay: Antibacterial activity against carbapenem resistant Klebsiella pneumoniae clinical isolate 19-15 assessed as inhibition of bacterial growth incubated for 18 to 24 hrs by broth microdilution method; assay type: functional; details: time 18-24 hrs
Klebsiella pneumoniae [6] = assay: Antibacterial activity against carbapenem resistant Klebsiella pneumoniae clinical isolate 19-17 assessed as inhibition of bacterial growth incubated for 18 to 24 hrs by broth microdilution method; assay type: functional; details: time 18-24 hrs
Acinetobacter baumannii [7] = assay: Antibacterial activity against oxacillinase-27 producing Acinetobacter baumannii NCTC 13304 assessed as inhibition of bacterial growth incubated for 18 to 24 hrs by broth microdilution method; assay type: functional; details: time 18-24 hrs
[8] = tested on: Staphylococcus epidermidis; assay: Antibacterial activity against methicillin resistant Staphylococcus epidermidis clinical isolate 19-6 assessed as inhibition of bacterial growth incubated for 18 to 24 hrs by broth microdilution method; assay type: functional; details: time 18-24 hrs
Pseudomonas aeruginosa [9] = assay: Antibacterial activity against Pseudomonas aeruginosa clinical isolate 19-1 assessed as inhibition of bacterial growth incubated for 18 to 24 hrs by broth microdilution method; assay type: functional; details: time 18-24 hrs
Pseudomonas aeruginosa [10] = assay: Antibacterial activity against carbapenem resistant Pseudomonas aeruginosa clinical isolate 17-1 assessed as inhibition of bacterial growth incubated for 18 to 24 hrs by broth microdilution method; assay type: functional; details: time 18-24 hrs
Cell membrane = assay: Induction of outer membrane permeabilization in Escherichia coli ATCC 25922 assessed as increase in fluorescence at 1 to 16 ug/ml measured after 3 mins by NPN-dye based assay; assay type: subcellular; details: dose 1-16 µg/ml
Escherichia coli [11] = assay: Antibacterial activity against Escherichia coli NCTC 13353 assessed as inhibition of bacterial growth incubated for 18 to 24 hrs by broth microdilution method; assay type: functional; details: time 18-24 hrs
Escherichia coli [12] = assay: Antibacterial activity against Escherichia coli ATCC 25922 assessed as inhibition of bacterial growth incubated for 18 to 24 hrs by broth microdilution method; assay type: functional; details: time 18-24 hrs
Escherichia coli [13] = assay: Antibacterial activity against Escherichia coli ATCC BAA-2523 assessed as inhibition of bacterial growth incubated for 18 to 24 hrs by broth microdilution method; assay type: functional; details: time 18-24 hrs
Escherichia coli [14] = assay: Antibacterial activity against Escherichia coli clinical isolate 19-2 assessed as inhibition of bacterial growth incubated for 18 to 24 hrs by broth microdilution method; assay type: functional; details: time 18-24 hrs
[15] = Cytotoxicity against human HK-2 cells assessed as inhibition of cell growth incubated for 72 hrs by CCK-8 assay; assay type: toxicity, cell-based
Candida albicans = assay: Antifungal activity against Candida albicans; assay type: functional
Staphylococcus aureus [16] = assay: Antibacterial activity against methicillin resistant Staphylococcus aureus ATCC 33591 assessed as inhibition of bacterial growth incubated for 18 to 24 hrs by broth microdilution method; assay type: functional; details: time 18-24 hrs
Acinetobacter baumannii [17] = assay: Antibacterial activity against Acinetobacter baumannii; assay type: functional
[18] = tested on: Staphylococcus epidermidis; assay: Antibacterial activity against Staphylococcus epidermidis; assay type: functional
[19] = Selectivity index, ratio of IC50 for cytotoxicity against human HK-2 cells to MIC for antibacterial activity against Escherichia coli ATCC BAA-2523; assay type: toxicity, cell-based
Klebsiella pneumoniae [20] = assay: Antibacterial activity against KPC producing Klebsiella pneumoniae ATCC BAA-1705 assessed as inhibition of bacterial growth incubated for 18 to 24 hrs by broth microdilution method; assay type: functional; details: time 18-24 hrs
[21] = Plasma protein binding in human at 2 uM incubated for 6 hrs by equilibrium dialysis based LC-MS/MS analysis; assay type: ADME, cell-free; details: read-out: PPB (converted)
Klebsiella pneumoniae [22] = assay: Antibacterial activity against Klebsiella pneumoniae; assay type: functional
Acinetobacter baumannii [23] = assay: Antibacterial activity against carbapenem resistant Acinetobacter baumannii clinical isolate 19-8 assessed as inhibition of bacterial growth incubated for 18 to 24 hrs by broth microdilution method; assay type: functional; details: time 18-24 hrs
Pseudomonas aeruginosa [24] = assay: Antibacterial activity against carbapenem resistant Pseudomonas aeruginosa clinical isolate 19-3 assessed as inhibition of bacterial growth incubated for 18 to 24 hrs by broth microdilution method; assay type: functional; details: time 18-24 hrs
Staphylococcus aureus [25] = assay: Antibacterial activity against Staphylococcus aureus; assay type: functional
Pseudomonas aeruginosa [26] = assay: Antibacterial activity against Pseudomonas aeruginosa; assay type: functional
Escherichia coli [27] = assay: Antibacterial activity against Escherichia coli; assay type: functional
Pseudomonas aeruginosa [28] = assay: Antibacterial activity against Pseudomonas aeruginosa FADDI-PA070 incubated for 18 hrs by broth microdilution method; assay type: functional
Pseudomonas aeruginosa [29] = assay: Antibacterial activity against Pseudomonas aeruginosa ATCC 27853 incubated for 18 hrs by broth microdilution method; assay type: functional
Pseudomonas aeruginosa [30] = assay: Antibacterial activity against Pseudomonas aeruginosa FADDI-PA025 incubated for 18 hrs by broth microdilution method; assay type: functional
Pseudomonas aeruginosa [31] = assay: Antibacterial activity against Pseudomonas aeruginosa FADDI-PA060 incubated for 18 hrs by broth microdilution method; assay type: functional
Pseudomonas aeruginosa [32] = assay: Antibacterial activity against Pseudomonas aeruginosa FADDI-PA090 incubated for 18 hrs by broth microdilution method; assay type: functional

Compound | MIC [1] [µg/mL] | MIC (Staphylococcus aureus [2]) [µg/mL] | MIC (Escherichia coli [3]) [µg/mL] | MIC (Pseudomonas aeruginosa [4]) [µg/mL] | MIC (Klebsiella pneumoniae [5]) [µg/mL] | MIC (Klebsiella pneumoniae [6]) [µg/mL] | MIC (Acinetobacter baumannii [7]) [µg/mL] | MIC [8] [µg/mL] | MIC (Pseudomonas aeruginosa [9]) [µg/mL] | MIC (Pseudomonas aeruginosa [10]) [µg/mL] | MIC (Escherichia coli [11]) [µg/mL] | MIC (Escherichia coli [13]) [µg/mL] | MIC (Escherichia coli [14]) [µg/mL] | IC50 at 72 h [15] [µg/mL] | MIC (Candida albicans) [µg/mL] | MIC (Staphylococcus aureus [16]) [µg/mL] | MIC (Acinetobacter baumannii [17]) [µg/mL] | MIC [18] [µg/mL] | selectivity ratio [19] | MIC (Klebsiella pneumoniae [20]) [µg/mL] | other results
C[C@@H](O)[C@H]1C(=O)N2C(C(=O)O)=C(S[C@@H]3CN[C@H](C(=O)N(C)C)C3)[C@H](C)[C@H]12 [MEROPENEM] | 2 (≈ 5.22 µM) | 0.125 (≈ 0.326 µM) | 4 (≈ 10.4 µM) | 1 (≈ 2.61 µM) | 64 (≈ 167 µM) | > 64 | 64 (≈ 167 µM) | 2 (≈ 5.22 µM) | 0.5 (≈ 1.3 µM) | 32 (≈ 83.4 µM) | < 0.06 | 0.25 (≈ 0.652 µM) | ≤ 0.06 |  |  |  |  |  |  |  | Activity (Cell membrane): inactive; MIC (Escherichia coli [12]): 0.06 µg/mL (≈ 0.156 µM)
CCCCCCC[C@@H](O)CC(=O)N[C@H](CCN)C(=O)N[C@H]1CCNC(=O)[C@H](CC(C)C)NC(=O)[C@H](CCN)NC(=O)[C@H](CCN)NC(=O)[C@H](CC(C)C)NC(=O)[C@@H](Cc2ccccc2)NC(=O)[C@H](CCN)NC1=O ({Decanoyl(3R-OH)}-[dDab][Dab][Dab][dF]L[Dab][Dab]L; lactam 2-C) | 2 (≈ 1.92 µM) | 16 (≈ 15.3 µM) | 2 (≈ 1.92 µM) | 2 (≈ 1.92 µM) | 8 (≈ 7.66 µM) | 8 (≈ 7.66 µM) | 8 (≈ 7.66 µM) | 4 (≈ 3.83 µM) | 2 (≈ 1.92 µM) | 2 (≈ 1.92 µM) | 8 (≈ 7.66 µM) | 8 (≈ 7.66 µM) | 16 (≈ 15.3 µM) | 14.2 (≈ 13.6 µM) | 4.7 (≈ 4.5 µM) | 16 (≈ 15.3 µM) | 4 (≈ 3.83 µM) | 0.6 (≈ 0.575 µM) | 1.8 | 8 (≈ 7.66 µM) | fraction unbound at 6 h, 2 µM [21]: 0.0805; MIC (Klebsiella pneumoniae [22]): 0.78 µg/mL (≈ 0.747 µM); MIC (Acinetobacter baumannii [23]): 4 µg/mL (≈ 3.83 µM); MIC (Pseudomonas aeruginosa [24]): 4 µg/mL (≈ 3.83 µM); MIC (Staphylococcus aureus [25]): 3.1 µg/mL (≈ 2.97 µM); MIC (Pseudomonas aeruginosa [26]): 0.4 µg/mL (≈ 0.383 µM); MIC (Escherichia coli [27]): 0.1 µg/mL (≈ 0.0958 µM)
CCCCCCCCCC(=O)N[C@H](CCN)C(=O)N[C@H]1CCNC(=O)[C@H]([C@@H](C)O)NC(=O)[C@H](CCN)NC(=O)[C@H](CCN)NC(=O)[C@H](CC(C)C)NC(=O)[C@@H](Cc2ccccc2)NC(=O)[C@H](CCN)NC1=O (Decanoyl-[dDab][Dab][Dab][dF]L[Dab][Dab]T; lactam 2-C) |  |  |  |  |  |  |  |  |  |  |  |  |  |  |  |  |  |  |  |  | MIC (Pseudomonas aeruginosa [28]): 0.5 µg/mL (≈ 0.492 µM); MIC (Pseudomonas aeruginosa [29]): 0.5 µg/mL (≈ 0.492 µM); MIC (Pseudomonas aeruginosa [30]): 0.5 µg/mL (≈ 0.492 µM); MIC (Pseudomonas aeruginosa [31]): 0.5 µg/mL (≈ 0.492 µM); MIC (Pseudomonas aeruginosa [32]): 0.5 µg/mL (≈ 0.492 µM)
CCCCCCC[C@@H](O)CC(=O)N[C@H](CCN)C(=O)N[C@H]1CCNC(=O)[C@H](CC(C)C)NC(=O)[C@H](CCN)NC(=O)[C@H](CCN)NC(=O)[C@H](Cc2ccccc2)NC(=O)[C@@H](CC(C)C)NC(=O)[C@H](CCN)NC1=O | 2 (≈ 1.92 µM) | 32 (≈ 30.6 µM) | 8 (≈ 7.66 µM) | 2 (≈ 1.92 µM) | 16 (≈ 15.3 µM) | 16 (≈ 15.3 µM) | 8 (≈ 7.66 µM) | 8 (≈ 7.66 µM) | 4 (≈ 3.83 µM) | 2 (≈ 1.92 µM) | 16 (≈ 15.3 µM) | 8 (≈ 7.66 µM) | 16 (≈ 15.3 µM) | 16.1 (≈ 15.4 µM) | 4.7 (≈ 4.5 µM) | 32 (≈ 30.6 µM) | 4 (≈ 3.83 µM) | 0.6 (≈ 0.575 µM) | 2 | 8 (≈ 7.66 µM) | MIC (Klebsiella pneumoniae [22]): 0.78 µg/mL (≈ 0.747 µM); MIC (Acinetobacter baumannii [23]): 4 µg/mL (≈ 3.83 µM); MIC (Pseudomonas aeruginosa [24]): 4 µg/mL (≈ 3.83 µM); MIC (Staphylococcus aureus [25]): 3.1 µg/mL (≈ 2.97 µM); MIC (Pseudomonas aeruginosa [26]): 0.4 µg/mL (≈ 0.383 µM); MIC (Escherichia coli [27]): 0.1 µg/mL (≈ 0.0958 µM)
